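The compound was tested at five concentrations on cells cultured in 96-well plates, with a 48-hour exposure period. GI50: concentration for 50% inhibition of growth.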 Calls of active or inactive are those of the source. No stated cut-off is given here; in the data, active = GI50 up to about 1.1 µM and inactive = higher.
Experiments:
Assay in all cases: DTP human tumour cell line panel, 48 h
COLO 205 = tested on: COLO 205
HOP-92 = tested on: HOP-92
MOLT-4 = tested on: MOLT-4
U-251 = tested on: U-251
CAKI-1 = tested on: CAKI-1
HOP-62 = tested on: HOP-62
SR = tested on: SR
OVCAR-4 = tested on: OVCAR-4
HL-60 = tested on: HL-60
A498 = tested on: A498
IGROV-1 = tested on: IGROV-1
EKVX = tested on: EKVX
M14 = tested on: M14
UACC-257 = tested on: UACC-257
OVCAR-8 = tested on: OVCAR-8
SK-MEL-5 = tested on: SK-MEL-5
SK-MEL-28 = tested on: SK-MEL-28
NCI-H23 = tested on: NCI-H23
SK-MEL-2 = tested on: SK-MEL-2
ACHN = tested on: ACHN

| Compound | GI50 (COLO 205) | GI50 (HOP-92) | GI50 (MOLT-4) | GI50 (U-251) | GI50 (CAKI-1) | GI50 (HOP-62) | GI50 (SR) | GI50 (OVCAR-4) | GI50 (HL-60) | GI50 (A498) | GI50 (IGROV-1) | GI50 (EKVX) | GI50 (M14) | GI50 (UACC-257) | GI50 (OVCAR-8) | GI50 (SK-MEL-5) | GI50 (SK-MEL-28) | GI50 (NCI-H23) | GI50 (SK-MEL-2) | GI50 (ACHN) |
| --- | --- | --- | --- | --- | --- | --- | --- | --- | --- | --- | --- | --- | --- | --- | --- | --- | --- | --- | --- | --- |
| C=CS(=O)(=O)c1c2cc(OC)ccc2nc2ccc(OC)cc12 | 4.34 µM (inactive) | 5.33 µM (inactive) | 2.32 µM (inactive) | 7.05 µM (inactive) | 4.22 µM (inactive) | 14.8 µM (inactive) | 2.32 µM (inactive) | 13.1 µM (inactive) | 7.96 µM (inactive) | 12.7 µM (inactive) | 2.92 µM (inactive) | 8.32 µM (inactive) | 7.46 µM (inactive) | 7.53 µM (inactive) | 3.6 µM (inactive) | 14.1 µM (inactive) | 7.98 µM (inactive) | 4.02 µM (inactive) | 19 µM (inactive) | 3.35 µM (inactive) |
| COC(=O)c1c(O)ccc2c1c1c(n2Cc2cccc(C)c2)C(=O)c2ccccc2C1=O | 1.67 µM (inactive) | 6.61 µM (inactive) | 4.24 µM (inactive) | 11.6 µM (inactive) | 11.8 µM (inactive) | 16.1 µM (inactive) | 4.98 µM (inactive) | 6.46 µM (inactive) | 16.6 µM (inactive) | 17.7 µM (inactive) | 11.4 µM (inactive) | 19.5 µM (inactive) | 15 µM (inactive) | 16.6 µM (inactive) | 7.31 µM (inactive) | 13.1 µM (inactive) | 15.3 µM (inactive) | 11.4 µM (inactive) | 12.6 µM (inactive) | 11.2 µM (inactive) |
| O=C1NCN(c2ccccc2)C12CCN(CCCSc1ccc(F)cc1)CC2 | 1.51 µM (inactive) | 9.71 µM (inactive) | 12.2 µM (inactive) | > 88.5 µM (inactive) | > 51.5 µM (inactive) | 25.5 µM (inactive) | 15.9 µM (inactive) | 13.8 µM (inactive) | 21.8 µM (inactive) | 11.4 µM (inactive) | 9.1 µM (inactive) | 28.2 µM (inactive) | 6.25 µM (inactive) | 2.92 µM (inactive) | > 100 µM (inactive) | 6.44 µM (inactive) | 55.2 µM (inactive) | 27.7 µM (inactive) | 15.1 µM (inactive) | 19.7 µM (inactive) |
| CC1=CC(=O)NP(=O)(C23CC4CC(CC(C4)C2)C3)N1 (stereo not given) | > 100 µM (inactive) | > 100 µM (inactive) | > 100 µM (inactive) | > 100 µM (inactive) | > 100 µM (inactive) | > 100 µM (inactive) | > 100 µM (inactive) | > 100 µM (inactive) | > 100 µM (inactive) | > 100 µM (inactive) | > 100 µM (inactive) | > 100 µM (inactive) | > 100 µM (inactive) | > 100 µM (inactive) | > 100 µM (inactive) | > 100 µM (inactive) | > 100 µM (inactive) | > 100 µM (inactive) | > 100 µM (inactive) | > 100 µM (inactive) |
| C=CCOC1=C(OCC=C)C(C2COC(C)(C)O2)OC1=O (stereo not given) | > 100 µM (inactive) | 14.8 µM (inactive) | > 100 µM (inactive) | > 100 µM (inactive) | 18.7 µM (inactive) | > 100 µM (inactive) | 98.2 µM (inactive) | > 100 µM (inactive) | 45 µM (inactive) | > 100 µM (inactive) | > 100 µM (inactive) | > 100 µM (inactive) | > 100 µM (inactive) | > 100 µM (inactive) | > 100 µM (inactive) | > 100 µM (inactive) | > 100 µM (inactive) | > 100 µM (inactive) | > 100 µM (inactive) | > 100 µM (inactive) |
| O=C1C(Cl)=C(c2ccc([N+](=O)[O-])cc2)C(=O)c2c(O)cccc21 | 1.82 µM (inactive) | 1.44 µM (inactive) | 2.56 µM (inactive) | 0.8 µM (active) | 1.29 µM (inactive) | 4.17 µM (inactive) | 0.134 µM (active) | 1.93 µM (inactive) | 3.48 µM (inactive) | 3.08 µM (inactive) | 2.39 µM (inactive) | 3.35 µM (inactive) | 0.979 µM (active) | 1.9 µM (inactive) | 1.39 µM (inactive) | 1.87 µM (inactive) | 1.26 µM (inactive) | 1.67 µM (inactive) | 0.713 µM (active) | 1.11 µM (active) |
| COC(=O)c1c(O)ccc2c1c1c(n2Cc2cccc(C)c2)C(=O)c2ccccc2C1 | 12.1 µM (inactive) | 42.6 µM (inactive) | 17.1 µM (inactive) | 14.5 µM (inactive) | 8.75 µM (inactive) | 10.4 µM (inactive) | 13.7 µM (inactive) | 0.126 µM (active) | > 75 µM (inactive) | 40.8 µM (inactive) | 42.7 µM (inactive) | 0.0931 µM (active) | 14.5 µM (inactive) | 46.1 µM (inactive) | 26.2 µM (inactive) | 29.2 µM (inactive) | 0.295 µM (active) | 23.7 µM (inactive) | 45 µM (inactive) | 21.1 µM (inactive) |
| CC1(C)COC(/C=C/C2=NC(C)(C)CO2)=N1 | 14.4 µM (inactive) | 25 µM (inactive) | 12.6 µM (inactive) | 21.1 µM (inactive) | 5.89 µM (inactive) | 18.9 µM (inactive) | 4.44 µM (inactive) | 24.7 µM (inactive) | 20.1 µM (inactive) | 0.0401 µM (active) | 18.5 µM (inactive) | 16.9 µM (inactive) | 14.7 µM (inactive) | 29.6 µM (inactive) | 20.3 µM (inactive) | 14 µM (inactive) | 17.6 µM (inactive) | 23.2 µM (inactive) | 26.5 µM (inactive) | 17.4 µM (inactive) |
| Cn1c(=O)c2nc(N3CCOCC3)cnc2n(C)c1=O | > 100 µM (inactive) | > 100 µM (inactive) | > 100 µM (inactive) | > 100 µM (inactive) | > 100 µM (inactive) | > 100 µM (inactive) | > 100 µM (inactive) | > 100 µM (inactive) | > 100 µM (inactive) | > 100 µM (inactive) | > 100 µM (inactive) | > 100 µM (inactive) | > 100 µM (inactive) | > 100 µM (inactive) | > 100 µM (inactive) | > 100 µM (inactive) | > 100 µM (inactive) | > 100 µM (inactive) | > 100 µM (inactive) | > 100 µM (inactive) |

— ChEMBL document CHEMBL1201862, “PubChem BioAssay data set” (2004)
